The data set can be described thus: Binary mixtures of the ε-modification with the α-, β- or γ-modification in methanol and acetone (relative thermodynamic stability). It is filed as physicochemical.

Consider `CO/N=C(\C(=O)N[C@@H]1C(=O)N2C(C(=O)OC(C)OC(C)=O)=C(COC(N)=O)CS[C@H]12)c1ccco1` (stereo partly shown) [ε-modification, cefuroximaxetil], for which the “thermodynamic stability relative to the other crystalline modifications” value is recorded as “more stable than the α-, β- or γ-modification”.

Source of the values: patent US20090233899A1, “Crystalline Modification of Cefuroximaxetil” (Gruenenthal GmbH, priority 2006, published 2009).
